Data from ChEMBL document CHEMBL4402583, “Rational Substitution of ε-Lysine for α-Lysine Enhances the Cell and Membrane Selectivity of Pore-Forming Melittin” (J Med Chem, 2020).
≈ marks a conversion by molar mass, not a printed value. Calls of active or inactive are those of the source. The calls are words filed in the database; no cut-off is given here.

Key:
[1] = Cytotoxicity against HDF cells assessed as minimum cytotoxic concentration incubated for 24 hrs by MTS assay; type: cell-based; details: human, HDF cells (NHDF, human dermal fibroblasts)
Pseudomonas aeruginosa = test: Antibacterial activity against Pseudomonas aeruginosa assessed as reduction in bacterial growth incubated for 24 hrs by broth microdilution method; type: functional
Staphylococcus aureus [2] = test: Antibacterial activity against Staphylococcus aureus assessed as reduction in bacterial growth incubated for 24 hrs by broth microdilution method; type: functional
Candida albicans = test: Antifungal activity against Candida albicans assessed as reduction in fungal growth incubated for 24 hrs by broth microdilution method; type: functional
Lipid bilayer [3] = test: Induction of pore formation in negatively charged DOPE/DOPG large unilamellar vesicles assessed as calcein release at 0.39 to 50 uM measured for 60 mins by fluorescence based assay
Lipid bilayer [4] = test: Induction of pore formation in zwitterionic DOPC/cholesterol large unilamellar vesicles assessed as calcein release at 0.39 to 50 uM measured for 60 mins by fluorescence based assay
NHDF [5] = test: Cytotoxicity against HDF cells assessed as reduction in metabolic activity at 32 ug/ml incubated for 24 hrs by MTS assay; type: ADME, cell-based; details: human
NHDF [6] = test: Cytotoxicity against HDF cells at 31.25 ug/ml incubated for 24 hrs by Alexa Fluor […] phalloidin-FITC/Hoescht dye staining based fluorescence microscopic analysis; type: cell-based; details: human
Lipid bilayer [7] = test: Induction of pore formation in negatively charged DOPE/DOPG large unilamellar vesicles assessed as ratio of peptide to lipid molar ratio that induces 50% calcein leakage measured for 60 mins by calcein dequenching based fluorescence based assay
Lipid bilayer [8] = test: Binding affinity to zwitterionic DOPC/cholesterol large unilamellar vesicles assessed as transformation of peptide secondary structure to alpha-helical conformation by CD spectropolarimetry
[9] = Cytotoxicity against HDF cells assessed as minimum cytotoxic concentration incubated for 24 hrs by Alexa Fluor […] phalloidin-FITC/Hoescht dye staining based fluorescence microscopic analysis; type: cell-based; details: human, HDF cells (NHDF, human dermal fibroblasts)
Acinetobacter baumannii [10] = test: Resistance index, ratio of MIC for Acinetobacter baumannii ATCC 19606 measured after 4 serial passages by broth microdilution method to MIC for Acinetobacter baumannii ATCC 19606 incubated for 24 hrs by broth microdilution method; type: functional, organism-based; details: ATCC 19606 = CIP 70.34 = JCM 6841
Staphylococcus aureus [11] = test: Antibacterial activity against methicillin-sensitive Staphylococcus aureus assessed as reduction in bacterial growth incubated for 24 hrs by broth microdilution method; type: functional
Staphylococcus aureus [12] = test: Antibacterial activity against methicillin-resistance Staphylococcus aureus assessed as reduction in bacterial growth incubated for 24 hrs by broth microdilution method; type: functional
Enterococcus = test: Antibacterial activity against vancomycin-resistant Enterococcus assessed as reduction in bacterial growth incubated for 24 hrs by broth microdilution method; type: functional
Acinetobacter baumannii [13] = test: Antibacterial activity against multidrug-resistant Acinetobacter baumannii assessed as reduction in bacterial growth incubated for 24 hrs by broth microdilution method; type: functional
Enterobacteriaceae = test: Antibacterial activity against Carbapenem-Resistant Enterobacteriaceae assessed as reduction in bacterial growth incubated for 24 hrs by broth microdilution method; type: functional
[14] = Cytotoxicity against HDF cells assessed as cell viability at 500 ug/ml incubated for 24 hrs by MTS assay relative to control; type: cell-based; details: human, HDF cells (NHDF, human dermal fibroblasts); read-out: Activity
NHDF [15] = test: Cytotoxicity against HDF cells assessed as truncation and reduction in cytoskeleton at 500 ug/ml incubated for 24 hrs by Alexa Fluor […] phalloidin-FITC/Hoescht dye staining based fluorescence microscopic analysis; type: cell-based; details: human

CC[C@H](C)[C@H](NC(=O)CN)C(=O)NCC(=O)N[C@@H](C)C(=O)N[C@H](C(=O)N[C@@H](CC(C)C)C(=O)N[C@@H](CCCCN)C(=O)N[C@H](C(=O)N[C@@H](CC(C)C)C(=O)N[C@H](C(=O)N[C@H](C(=O)NCC(=O)N[C@@H](CC(C)C)C(=O)N1CCC[C@H]1C(=O)N[C@@H](C)C(=O)N[C@@H](CC(C)C)C(=O)N[C@H](C(=O)N[C@@H](CO)C(=O)N[C@@H](Cc1c[nH]c2ccccc12)C(=O)N[C@H](C(=O)N[C@@H](CCCCN)C(=O)N[C@@H](CCCNC(=N)N)C(=O)NCCC[C@@H](CN)C(=O)N[C@@H](CCCNC(=N)N)C(=O)N[C@@H](CCC(N)=O)C(=O)N[C@@H](CCC(N)=O)C(N)=O)[C@@H](C)CC)[C@@H](C)CC)[C@@H](C)O)[C@@H](C)O)C(C)C)C(C)C
MCC at 24 h [1]: > 16 µg/mL | MIC (Pseudomonas aeruginosa): 4 to 16 µg/mL (≈ 1.41 to 5.62 µM) | MIC (Staphylococcus aureus [2]): 4 to 8 µg/mL (≈ 1.41 to 2.81 µM) | MIC (Candida albicans): 4 to 8 µg/mL (≈ 1.41 to 2.81 µM) | Activity (Lipid bilayer [3]): Active | Activity (Lipid bilayer [4]): Active | Activity (NHDF [5]): Toxic | Activity (NHDF [6]): Toxic | Ratio (Lipid bilayer [7]): 0.15 | Activity (Lipid bilayer [8]): inactive | MCC at 24 h [9]: > 16 µg/mL

GENTAMICIN
Ratio (Acinetobacter baumannii [10]): 16

CC[C@H](C)[C@H](NC(=O)CN)C(=O)NCC(=O)N[C@@H](C)C(=O)N[C@H](C(=O)N[C@@H](CC(C)C)C(=O)NCCC[C@@H](CN)C(=O)N[C@H](C(=O)N[C@@H](CC(C)C)C(=O)N[C@H](C(=O)N[C@H](C(=O)NCC(=O)N[C@@H](CC(C)C)C(=O)N1CCC[C@H]1C(=O)N[C@@H](C)C(=O)N[C@@H](CC(C)C)C(=O)N[C@H](C(=O)N[C@@H](CO)C(=O)N[C@@H](Cc1c[nH]c2ccccc12)C(=O)N[C@H](C(=O)NCCC[C@@H](CN)C(=O)N[C@@H](CCCNC(=N)N)C(=O)NCCC[C@@H](CN)C(=O)N[C@@H](CCCNC(=N)N)C(=O)N[C@@H](CCC(N)=O)C(=O)N[C@@H](CCC(N)=O)C(N)=O)[C@@H](C)CC)[C@@H](C)CC)[C@@H](C)O)[C@@H](C)O)C(C)C)C(C)C
MIC (Pseudomonas aeruginosa): 16 to 64 µg/mL (≈ 5.62 to 22.5 µM) | MIC50 (Pseudomonas aeruginosa): 32 µg/mL (≈ 11.2 µM) | MIC (Candida albicans): 4 to 8 µg/mL (≈ 1.41 to 2.81 µM) | MIC50 (Candida albicans): 4 µg/mL (≈ 1.41 µM) | MIC (Staphylococcus aureus [11]): 16 to 128 µg/mL (≈ 5.62 to 45 µM) | MIC50 (Staphylococcus aureus [11]): 64 µg/mL (≈ 22.5 µM) | MIC50 (Staphylococcus aureus [12]): 64 µg/mL (≈ 22.5 µM) | MIC (Enterococcus): 4 to 16 µg/mL (≈ 1.41 to 5.62 µM) | MIC50 (Enterococcus): 8 µg/mL (≈ 2.81 µM) | MIC (Acinetobacter baumannii [13]): 4 to 8 µg/mL (≈ 1.41 to 2.81 µM) | MIC50 (Acinetobacter baumannii [13]): 8 µg/mL (≈ 2.81 µM) | MIC (Enterobacteriaceae): 4 to 64 µg/mL (≈ 1.41 to 22.5 µM) | MIC50 (Enterobacteriaceae): 8 µg/mL (≈ 2.81 µM) | viability at 24 h, 500 ug/ml [14]: 102% | Activity (NHDF [15]): Toxic
